# Measurements taken from patent publication US20240216352A1 (priority 2022, published 2024).
# Values joined by “and” are separate entries in the source; they are usually repeats but may differ in a detail not shown here. Equal values may be shown once.
# Experiments:
# [1] = tested on: healthy Japanese participants; assay: Phase 1 Part C MAD Japanese cohorts: blood pressure; type: in vivo, human
# Protocol: The study was performed in 3 parts in 112 healthy male and female participants, including 24 Japanese participants. Female participants were to be not of childbearing potential. The present study was designed to evaluate the safety and tolerability, PK, and exploratory PD of an oral suspension of Compound A. Parts A and B (Cohort B1 only) enrolled healthy participants and was conducted at a site in The Netherlands and Part B (Cohort B2 to B5) enrolled healthy non-Japanese participants and was conducted at a site in the United Kingdom (UK). Part C enrolled healthy Japanese participants and was conducted at the same site in the UK.
# Part C was a MAD study in 3 sequential dose escalation cohorts (30 mg BID, 60 mg BID, and 90 mg BID) of 8 healthy Japanese participants (6 active+2 placebo) each. Eligible participants in Cohorts C1 to C3 received study drug (Compound A or placebo) administered orally for 14 days.
# Physical examinations, vital sign measurements (including orthostasis testing in Cohort A6, Cohort B3 to B5, and C1 to C3 at selected time points), 12-lead electrocardiogram (ECG), and clinical laboratory evaluations were performed at selected times throughout the study. In addition, Holter monitoring was performed for the first 24 hours post dose on Day 1 in Part A (not in FE/pH cohort), and also for the first 24 hours post dose on Day 1 and Day 14 in Parts B and C. Participants were closely monitored for adverse events (AEs). Blood samples were collected for up to 14 days (follow-up visit) after (last) study drug administration for PK analysis. In addition, blood and urine were collected for exploratory biomarker assessments and for biobanking of samples for potential analyses. Urine was collected for potential PK analysis for up to 96 hours after a single dose of Compound A or placebo was administered in the SAD part, and for up to 24 hours after the first (morning) dose of study drug on Day 1 and for up to 24 hours after the last (morning) dose of study drug on Day 14 in the MAD parts.
# [2] = tested on: participants with PPF; assay: Phase 2 study, PPF cohort: safety and blood pressure; type: in vivo, human; settings: for Treatment discontinuations: 26-week treatment phase; for Nadir postdose reduction from baseline in mean seated systolic blood pressure: day 1
# Protocol: A total of 123 participants with PPF were randomized. Participants (age ≥21 years) were randomized (1:1:1) to receive 30 mg or 60 mg Compound A or PBO twice daily for 26 weeks. […] Immunosuppressive medications (mycophenolate mofetil, mycophenolic acid, azathioprine and/or tacrolimus) were permitted only if dosing is stable for ≥6 months prior to screening. If receiving antifibrotic agents pirfenidone or nintedanib, patients had to receive a stable dosage for ≥3 months prior to screening and during the screening period; if not receiving pirfenidone or nintedanib, patients had to be naive to both drugs or not have received either 4 weeks prior to Day 1. A total of 47 (38.2%) subjects were receiving antifibrotic treatment (with or without immunosuppression therapy). Of those subjects, 34 were being treated with nintedanib and 13 with pirfenidone. Participants were stratified by usual interstitial pneumonia (UIP) pattern (presence versus absence) and background therapy (antifibrotics+/−ILD-targeted immunosuppression versus ILD-targeted immunosuppression alone versus none). UIP pattern was present in 52% of subjects and unclassifiable ILD was the most common disease categorization.
# Patient is experiencing any of the following, confirmed by retest within 15 minutes: • Seated systolic blood pressure <85 mmHg • Seated diastolic blood pressure <55 mmHg • Orthostatic hypotension
# Patient is experiencing symptoms that, in the investigator's opinion, could be associated with a reduction in blood pressure and is also experiencing at least one of the following, confirmed by retest within 15 minutes: • Seated systolic blood pressure <100 mmHg or seated diastolic blood pressure <60 mmHg • Decrease of seated systolic blood pressure of ≥20 mmHg from the previous visit or decrease of seated diastolic blood pressure of ≥10 mmHg from the previous visit • Orthostatic hypotension • Orthostatic tachycardia
structure (smiles),measurement,setting,value
"CCCN(C)C(=O)OCc1c(-c2ccc(O[C@H]3CCC[C@H](C(=O)O)C3)c(C)n2)nnn1C [Compound A, (1S,3S)-3-((2-methyl-6-(1-methyl-5-(((methyl(propyl)carbamoyl)-oxy)methyl)-1H-1,2,3-triazol-4-yl)pyridin-3-yl)oxy)cyclohexane-1-carboxylic acid]",Maximum of mean (±SD) reduction in DBP from baseline (column printed under the head Baseline (mmHg)),[1]; Japanese MAD 30 BID (C1),8.8 ± 5.12 mmHg
same,Maximum of mean (±SD) reduction in SBP from baseline,[1]; Japanese MAD 30 BID (C1),15.0 ± 6.84 mmHg
same,Time of maximum mean SBP reduction,[1]; Japanese MAD 30 BID (C1),1-4 Day-h
same,Maximum of mean (±SD) reduction in DBP from baseline (column printed under the head Baseline (mmHg)),[1]; Japanese MAD 60 BID (C2),8.2 ± 10.40 mmHg
same,Maximum of mean (±SD) reduction in SBP from baseline,[1]; Japanese MAD 60 BID (C2),13.0 ± 8.22 mmHg
same,Time of maximum mean DBP reduction,[1]; Japanese MAD 60 BID (C2),4-16 Day-h
same,Time of maximum mean SBP reduction,[1]; Japanese MAD 60 BID (C2),2-16 Day-h
same,Maximum of mean (±SD) reduction in DBP from baseline (column printed under the head Baseline (mmHg)),[1]; Japanese MAD 90 BID (C2),8.0 ± 8.22 mmHg
same,Maximum of mean (±SD) reduction in SBP from baseline,[1]; Japanese MAD 90 BID (C2),11.8 ± 8.47 mmHg
same,Time of maximum mean DBP reduction,[1]; Japanese MAD 90 BID (C2),1-6 Day-h
same,Time of maximum mean SBP reduction,[1]; Japanese MAD 90 BID (C2),1-6 Day-h
same,Dose dependence of mean BP reduction,[1]; Japanese MAD cohorts,no clear Compound A dose-dependent BP reduction trend
same,Hepatobiliary toxicity,[2]; PPF cohort,No hepatobiliary toxicity
same,Tolerability and safety findings,[2]; PPF cohort,"well-tolerated, demonstrated no unexpected safety findings"
same,Low BP thresholds (events),"[2]; PPF, 30 mg",30%
same,Asymptomatic blood pressure reduction (prespecified criteria),"[2]; PPF, 30 mg BID (n = 40)",9 (22.5) no. (%)
same,COVID-19,"[2]; PPF, 30 mg BID (n = 40)",6 (15.0) no. (%)
same,Cough,"[2]; PPF, 30 mg BID (n = 40)",3 (7.5) no. (%)
same,Deaths due to TEAEs,"[2]; PPF, 30 mg BID (n = 40)",0 no. (%)
same,Diarrhea,"[2]; PPF, 30 mg BID (n = 40)",6 (15.0) no. (%)
same,Discontinuations due to TEAEs,"[2]; PPF, 30 mg BID (n = 40)",1 no. (%) and 1 (2.5) no. (%)
same,Dizziness,"[2]; PPF, 30 mg BID (n = 40)",0 no. (%)
same,Dose reductions,"[2]; PPF, 30 mg BID (n = 40)",6 (15.0) no. (%)
same,Dyspnea,"[2]; PPF, 30 mg BID (n = 40)",2 (5.0) no. (%)
same,Hypertension,"[2]; PPF, 30 mg BID (n = 40)",0 no. (%)
same,Hypotension,"[2]; PPF, 30 mg BID (n = 40)",4 (10.0) no. (%)
same,Nausea,"[2]; PPF, 30 mg BID (n = 40)",4 (10.0) no. (%)
same,Orthostatic hypotension (TEAE),"[2]; PPF, 30 mg BID (n = 40)",2 (5.0) no. (%)
same,Orthostatic hypotension within asymptomatic blood pressure reduction,"[2]; PPF, 30 mg BID (n = 40)",6 (15.0) no. (%)
same,Orthostatic hypotension within symptomatic blood pressure reduction,"[2]; PPF, 30 mg BID (n = 40)",1 (2.5) no. (%)
same,Rash,"[2]; PPF, 30 mg BID (n = 40)",3 (7.5) no. (%)
same,Symptomatic blood pressure reduction (prespecified criteria),"[2]; PPF, 30 mg BID (n = 40)",2 (5.0) no. (%)
same,Vomiting,"[2]; PPF, 30 mg BID (n = 40)",3 (7.5) no. (%)
same,≥1 TEAE,"[2]; PPF, 30 mg BID (n = 40)",33 (82.5) no. (%)
same,≥1 TEAE related to study drug,"[2]; PPF, 30 mg BID (n = 40)",7 (17.5) no. (%)
same,≥1 TESAE,"[2]; PPF, 30 mg BID (n = 40)",4 (10.0) no. (%)
same,Treatment discontinuations,"[2]; PPF, 30 mg BID",7.5%
same,Nadir postdose reduction from baseline in mean seated systolic blood pressure,"[2]; PPF, 30 mg",−10.7 mmHg
same,Asymptomatic blood pressure reduction (prespecified criteria),"[2]; PPF, 60 mg BID (n = 42)",13 (31.0) no. (%)
same,COVID-19,"[2]; PPF, 60 mg BID (n = 42)",6 (14.3) no. (%)
same,Cough,"[2]; PPF, 60 mg BID (n = 42)",5 (11.9) no. (%)
same,Deaths due to TEAEs,"[2]; PPF, 60 mg BID (n = 42)",0 no. (%)
same,Diarrhea,"[2]; PPF, 60 mg BID (n = 42)",3 (7.1) no. (%)
same,Discontinuations due to TEAEs,"[2]; PPF, 60 mg BID (n = 42)",0 no. (%)
same,Dizziness,"[2]; PPF, 60 mg BID (n = 42)",4 (9.5) no. (%)
same,Dose reductions,"[2]; PPF, 60 mg BID (n = 42)",5 (11.9) no. (%)
same,Dyspnea,"[2]; PPF, 60 mg BID (n = 42)",0 no. (%)
same,Hypertension,"[2]; PPF, 60 mg BID (n = 42)",1 (2.4) no. (%)
same,Hypotension,"[2]; PPF, 60 mg BID (n = 42)",3 (7.1) no. (%)
same,Nausea,"[2]; PPF, 60 mg BID (n = 42)",1 (2.4) no. (%)
same,Orthostatic hypotension (TEAE),"[2]; PPF, 60 mg BID (n = 42)",4 (9.5) no. (%)
same,Orthostatic hypotension within asymptomatic blood pressure reduction,"[2]; PPF, 60 mg BID (n = 42)",11 (26.2) no. (%)
same,Orthostatic hypotension within symptomatic blood pressure reduction,"[2]; PPF, 60 mg BID (n = 42)",4 (9.5) no. (%)
same,Rash,"[2]; PPF, 60 mg BID (n = 42)",0 no. (%)
same,Symptomatic blood pressure reduction (prespecified criteria),"[2]; PPF, 60 mg BID (n = 42)",6 (14.3) no. (%)
same,Vomiting,"[2]; PPF, 60 mg BID (n = 42)",0 no. (%)
same,≥1 TEAE,"[2]; PPF, 60 mg BID (n = 42)",28 (66.7) no. (%)
same,≥1 TEAE related to study drug,"[2]; PPF, 60 mg BID (n = 42)",11 (26.2) no. (%)
same,≥1 TESAE,"[2]; PPF, 60 mg BID (n = 42)",5 (11.9) no. (%)
same,Treatment discontinuations,"[2]; PPF, 60 mg BID",4.8%
same,Orthostatic hypotension (asymptomatic and symptomatic) versus other groups,"[2]; PPF, 60 mg group",higher in the 60 mg group than for other groups
same,Nadir postdose reduction from baseline in mean seated systolic blood pressure,"[2]; PPF, 60 mg",−12.7 mmHg
